{"source": "patent US7977373B2", "about": "“Prodrugs of ion channel modulating compounds and uses thereof” (Cardiome Pharma Corp., priority 2004, dated 2011)", "origin": "cited, not measured here"}
{"smiles": "CCCCCCCN(CC)CCCC(O)c1ccc(NS(C)(=O)=O)cc1", "note": "(centres unmarked) [ibutilide]", "values": [{"measurement": "patients requiring cardioversion for refractory ventricular arrhythmias", "value": "~1.7", "unit": "%"}, {"measurement": "risk of ventricular proarrhythmia", "setting": "estimated, patients", "value": "~4.4", "unit": "%"}]}
